Laboratory results: patent US20040127492A1 (Pharmacia Corporation, priority 2002, published 2004)
Like-named read-outs stand apart in the source and are kept apart here.

Columns and labels:
[1] = biological target: MAPKAPK2 (MK-2) (Homo sapiens, UniProt P49137); assay: Determination of MK-2 IC50 (HSP-peptide phosphorylation, anion exchange resin capture assay); type: biochemical
Procedure, shortened: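 MAPKAPK2, preactivated by p38α with 0.25 mM ATP for 1 h at 30° C, used at 15 nM to phosphorylate HSP-peptide with 0.03 mM ATP plus [γ33P]ATP, pH 7.5, 2% DMSO, 30 min at 30° C. Labelled peptide counted after anion-exchange resin capture; IC50 from six ten-fold dilutions, triplicate.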

[2] = biological target: MK-3 (Homo sapiens, UniProt Q16644); assay: MK-3 inhibition IC50 (similar method to MK-2, with appropriate modifications); type: biochemical; details: read-out: MK-3 Avg. IC50
Sequence of MK-3 (Q16644 whole entry, species assumed): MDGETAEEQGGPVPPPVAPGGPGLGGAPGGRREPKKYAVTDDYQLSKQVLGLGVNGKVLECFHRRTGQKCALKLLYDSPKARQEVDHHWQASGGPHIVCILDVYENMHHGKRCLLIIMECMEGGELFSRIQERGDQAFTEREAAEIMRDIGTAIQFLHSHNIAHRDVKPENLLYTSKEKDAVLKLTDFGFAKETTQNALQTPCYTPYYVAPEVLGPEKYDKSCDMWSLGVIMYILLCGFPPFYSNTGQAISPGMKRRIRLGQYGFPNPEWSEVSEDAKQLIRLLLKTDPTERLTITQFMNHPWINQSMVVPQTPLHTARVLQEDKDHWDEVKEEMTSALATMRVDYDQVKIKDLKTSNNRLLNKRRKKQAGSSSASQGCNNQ

[3] = Table 1, phenoxypyrazole MK-2 inhibitors, read-out: MK-2 Avg, IC50
[4] = Table 1, phenoxypyrazole MK-2 inhibitors
[5] = Table 5, other cyclic pyrazole MK-2 inhibiting compounds, read-out: MK-2 Avg. IC50
[6] = Table 5, other cyclic pyrazole MK-2 inhibiting compounds
[7] = Table 2, pyrazolylpyrazole MK-2 inhibitors, read-out: MK-2 Avg. IC50
[8] = Table 2, pyrazolylpyrazole MK-2 inhibitors

Sequence of MAPKAPK2 (MK-2) (P49137 whole entry, species assumed): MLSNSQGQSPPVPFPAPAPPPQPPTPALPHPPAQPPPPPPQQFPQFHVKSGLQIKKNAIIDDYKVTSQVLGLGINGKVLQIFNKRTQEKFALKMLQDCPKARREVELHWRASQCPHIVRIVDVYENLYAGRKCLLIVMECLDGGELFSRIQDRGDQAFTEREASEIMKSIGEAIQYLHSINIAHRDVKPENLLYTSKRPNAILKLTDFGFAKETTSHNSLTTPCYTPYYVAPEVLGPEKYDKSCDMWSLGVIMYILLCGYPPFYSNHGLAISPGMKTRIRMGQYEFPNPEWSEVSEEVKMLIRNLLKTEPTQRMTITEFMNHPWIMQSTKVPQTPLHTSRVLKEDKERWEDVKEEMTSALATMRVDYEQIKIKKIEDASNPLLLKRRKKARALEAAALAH

IC50 [1, 3] [µM]	IC50 [2, 4] [µM]	IC50 [1, 7] [µM]	IC50 [2, 8] [µM]	SMILES	further results
53.7	> 200			COc1cc2c(cc1-c1cccc([N+](=O)[O-])c1)-c1nn(CCCNC(=O)OC(C)(C)C)c(C(=O)O)c1CC2 [Example 37]	
				NCCn1nc2c(c1C(=O)O)CCc1cnc(/C=C/c3ccccc3)cc1-2 [Example 37]	IC50 [1, 5]: 0.0413 µM; IC50 [2, 6]: 1.21 µM
				O=C(O)c1c2c(nn1CCCNCCc1ccc(-c3ccncc3)cc1)-c1ccncc1CC2 [Example 37]	IC50 ([1]; read-out: MK-2 Avg. IC50): 0.211 µM; IC50 [2]: 7.71 µM
		139	≥ 200	O=C(O)c1c2c(nn1CCO)-c1cn[nH]c1CC2 [Example 37]	
		139	≥ 200	CC(C)(C)OC(=O)NCCn1nc2c(c1C(=O)O)CCc1c-2cnn1C(c1ccccc1)(c1ccccc1)c1ccccc1 [Example 38]	
				CCOC(=O)c1c2c(nn1CCCN)-c1cc(/C=C/c3ccccc3)ncc1CC2 [Example 38]	IC50 [1, 5]: 3.61 µM; IC50 [2, 6]: > 20 µM
56.2	> 200			COc1cc2c(cc1-c1cccc(C#N)c1)-c1nn(CCCNC(=O)OC(C)(C)C)c(C(=O)O)c1CC2 [Example 38]	
				O=C(O)c1c2c(nn1CCCNCCCc1ccc(Br)cc1)-c1ccncc1CC2 [Example 38]	IC50 ([1]; read-out: MK-2 Avg. IC50): 0.22 µM; IC50 [2]: 10.3 µM
				CC(C)(C)c1ccc(CCCNCCCn2nc3c(c2C(=O)O)CCc2cnccc2-3)cc1 [Example 39]	IC50 ([1]; read-out: MK-2 Avg. IC50): 0.234 µM; IC50 [2]: 11.6 µM
		141	180	CONC(=O)c1[nH]nc2c1CCc1[nH]ncc1-2 [Example 39]	
56.2	> 200			Cn1nc(C(=O)O)c2c1-c1ccc(O)cc1CC2 [Example 39]	
				CC(C)c1cccc(-c2ccc(CCNCCCn3nc4c(c3C(=O)O)CCc3cnccc3-4)cc2)c1 [Example 40]	IC50 ([1]; read-out: MK-2 Avg. IC50): 0.245 µM; IC50 [2]: 16.1 µM
59.6	> 200			COc1cc2c(cc1CCc1ccc(Cl)cc1)-c1nn(CCCNC(=O)OC(C)(C)C)c(C(=O)O)c1CC2 [Example 40]	
		145	≥ 200	NS(=O)(=O)c1ccc(-n2nc(C(=O)O)c3c2-c2cn[nH]c2CC3)cc1 [Example 40]	
63.8	> 200			COc1cc2c(cc1-c1cccc(C(F)(F)F)c1)-c1nn(CCCNC(=O)OC(C)(C)C)c(C(=O)O)c1CC2 [Example 41]	
		150	≥ 200	O=C(O)c1c2c(nn1CC(F)(F)F)-c1cn[nH]c1CC2 [Example 41]	
				O=C(O)c1c2c(nn1CCCNCCc1cccs1)-c1ccncc1CC2 [Example 41]	IC50 ([1]; read-out: MK-2 Avg. IC50): 0.269 µM; IC50 [2]: 15.7 µM
				CN(C)c1ccc(-c2cc3c(cn2)CCc2c-3nn3c2C(=O)NCC3)cc1 [Example 42]	IC50 ([1]; read-out: MK-2 Avg. IC50): 0.272 µM; IC50 [2]: 36 µM
65.7	> 200			COc1cc2c(cc1-c1ccc(C(C)(C)C)cc1)-c1nn(CCCNC(=O)OC(C)(C)C)c(C(=O)O)c1CC2 [Example 42]	
		180	≥ 200	O=C(O)c1nn(CC(F)(F)F)c2c1CCc1[nH]ncc1-2 [Example 42]	
		181	≥ 200	C=CCn1nc2c(c1C(N)=O)CCc1[nH]ncc1-2 [Example 43]	
				COc1ccc(-c2cc3c(cn2)CCc2c-3nn3c2C(=O)NCCC3)cc1OC [Example 43]	IC50 ([1]; read-out: MK-2 Avg. IC50): 0.288 µM; IC50 [2]: 15.8 µM
		181	≥ 200	CCOC(=O)c1c2c(nn1CCCN)-c1c(SCc3ccccc3)n[nH]c1CC2 [Example 44]	
82.2	> 200			COc1cc2c(cc1-c1cccc([N+](=O)[O-])c1)-c1nn(CCNC(=O)OC(C)(C)C)c(C(=O)O)c1CC2 [Example 44]	
				O=C(O)c1c2c(nn1CCCNCCc1ccc(-c3ccccc3)cc1)-c1ccncc1CC2 [Example 44]	IC50 ([1]; read-out: MK-2 Avg. IC50): 0.316 µM; IC50 [2]: 5.01 µM
88.7	> 200			Nc1cc2c(cc1O)CCc1c-2nn2c1C(=O)NCCC2 [Example 45]	
		188	≥ 200	O=C(O)c1[nH]nc2c1CCc1[nH]ncc1-2 [Example 45]	
92.7	> 200			COc1cc2c(cc1-c1ccc(F)c(F)c1)-c1nn(CCCNC(=O)OC(C)(C)C)c(C(=O)O)c1CC2 [Example 46]	
